# PubChem BioAssay AID588780 (Sanford-Burnham Center for Chemical Genomics, 2011)
# The source made the active and inactive calls.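 Rule for the calls: active = compounds whose fitted half-maximal concentration in the cell-protection dose series is at or below a set limit; inactive = the rest.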
# Test system: H9c2 cardiomyocytes, 2-deoxyglucose stress, ATP luminescence, 2 h
# Assay: protection of cardiomyocytes from 2-deoxyglucose injury, dose response, cell-based, 2-deoxyglucose stress, uHTS hits (AID 588780)
row,SMILES,IC50
1,CC(=O)c1ccc(-c2cnc3c(NC=O)cc(-c4ccc(C(=O)NC5CC5)cc4)cn23)cc1,> 79 µM (inactive)
2,O=C(Nc1cccc(N=Cc2cc(Br)cc(Br)c2O)c1)c1ccco1,> 79 µM (inactive)
3,O=C(CSc1nnc(-c2cccnc2)n1Cc1ccco1)c1ccccc1,> 79 µM (inactive)
4,O=C(COc1ccc(Cl)cc1)NCc1n[nH]c(=O)c2ccccc12,> 79 µM (inactive)
5,CC1(c2ccccc2)NC(=O)N(CC(=O)Nc2cccc(/C=C/c3ccccn3)c2)C1=O (centres undefined),19 µM
6,Oc1ccc(Br)cc1C=Nc1ccc2[nH]ncc2c1,> 79 µM (inactive)
7,O=C(CSc1nc2ccccc2o1)NCc1n[nH]c(=O)c2ccccc12,13.9 µM
8,O=C(NN=Cc1ccc(N2CCOCC2)s1)c1ccc([N+](=O)[O-])cc1,> 79 µM (inactive)
9,CC(OC(=O)Cn1[nH]c(=O)c2ccccc2c1=O)C(=O)Nc1ccc(F)cc1 (centres undefined),> 79 µM (inactive)
10,C[C@H](CO)N1C[C@H](C)[C@@H](CN(C)S(=O)(=O)c2ccc(F)cc2)Oc2ccc(NC(=O)Nc3ccc4c(c3)OCO4)cc2C1=O,36 µM (inactive)
11,O=C(Cn1[nH]c(=O)c2ccccc2c1=O)NC1CCCCCC1,> 79 µM (inactive)
12,Cc1c(-c2ccccc2)oc2c(C(=O)OCC(=O)Nc3ccc(C(N)=O)cc3)cccc2c1=O,9.94 µM
13,COc1cc(-c2cc(NC(C)=O)c3ncc(-c4ccccc4)n3c2)cc(OC)c1OC,> 79 µM (inactive)
14,O=C(CNC(=O)c1[nH]cnc1C(=O)NC(c1ccccc1)c1ccccc1)OCc1ccccc1,13.1 µM
15,COc1cc(NC(=O)c2ccc(-c3cn[nH]c3)c3ccoc23)cc(OC)c1OC,10.4 µM
16,CCC1(C)Cc2c(sc3nc(NN)n(C)c(=O)c23)CO1 (centres undefined),> 79 µM (inactive)
17,COc1ccccc1-c1cc2nc(-c3ccccc3)cc(N3CCN(C(=O)c4ccoc4)CC3)n2n1,> 79 µM (inactive)
18,CCOc1ccc(NC(=O)CN(C)C(=O)Cc2n[nH]c(=O)c3ccccc23)cc1OCC,> 79 µM (inactive)
19,COc1ccc(C(=O)NN/C=C/C(=O)c2ccc(Br)cc2)cc1,> 79 µM (inactive)
20,O=C(NC(O)C(=O)c1cccs1)c1cccnc1 (centres undefined),> 79 µM (inactive)
21,O=C(CCCN1C(=O)c2cccc3cccc(c23)C1=O)N1CCN(c2ccccc2O)CC1,10.3 µM
22,Cc1nnc(SCC(=O)N/N=C/c2cn(-c3ccccc3)nc2-c2ccccc2)n1-c1ccccc1,14 µM
23,CC1(NC(=O)CCc2nc3ccccc3c(=O)[nH]2)CCS(=O)(=O)C1 (centres undefined),> 79 µM (inactive)
24,CCN(C[C@H]1N[C@@](C)(C(=O)OC)[C@H]2C(=O)N(Cc3ccccc3)C(=O)[C@@H]12)C(=O)c1ccc(C(C)(C)C)cc1,> 79 µM (inactive)

row,SMILES,IC50
1,COc1cccc(OC)c1-c1nn2c(-c3ccco3)nnc2s1,> 79 µM (inactive)
2,COc1ccc(NC(=O)C(OC(=O)c2ccc([N+](=O)[O-])o2)c2ccccc2)cc1Cl (centres undefined),> 79 µM (inactive)
3,O=C(COc1cccc2c1CCNC2=O)Nc1ccc(F)cc1,> 79 µM (inactive)
4,CCSc1nnc(NC(=O)C2Cc3ccccc3CN2S(=O)(=O)CC)s1 (centres undefined),43.6 µM (inactive)
5,CCN(CC)c1ccc(C(=O)NNC(=O)CCc2nc3ccccc3c(=O)[nH]2)cc1,> 79 µM (inactive)
6,O=C(COc1ccccc1F)Nc1nc(-c2ccccn2)cs1,> 79 µM (inactive)
7,CC(C)OCCCNC(=O)CCC(=O)NNc1nc2ccccc2c2nc(-c3ccccc3)nn12,> 79 µM (inactive)
8,CCN(CC(=O)Nc1c(F)cccc1F)C(=O)Cc1n[nH]c(=O)c2ccccc12,> 79 µM (inactive)
9,CN(CC(=O)Nc1ccc(F)cc1)C(=O)CCc1nc2ccccc2c(=O)[nH]1,> 79 µM (inactive)
10,CS(=O)(=O)N(Cc1ccc(C(=O)NCCSc2ccccn2)cc1)c1ccccc1,> 79 µM (inactive)
11,COc1cccc(-c2cnc3c(NC(C)=O)cc(-c4cccc(NS(C)(=O)=O)c4)cn23)c1,> 79 µM (inactive)
12,O=c1[nH]c2cc([N+](=O)[O-])ccc2c2ccccc12,> 79 µM (inactive)
13,O=C(CC1CC2CCC1C2)Nc1nc(-c2ccccn2)cs1 (centres undefined),> 79 µM (inactive)
14,CCN(CC)C(=O)c1[nH]cnc1C(=O)NCC(=O)OCc1ccccc1,> 79 µM (inactive)
15,COc1ccc(N(CC(=O)N/N=C/c2cccs2)S(=O)(=O)c2ccc(OC)c(OC)c2)cc1,27.8 µM
16,CCN(c1ccc(NC(=O)COC(=O)c2ccc([N+](=O)[O-])o2)cc1)C(C)C,> 79 µM (inactive)
17,CCOC(=O)Cc1csc(NC(=O)NC2(C(F)(F)F)Oc3ccc(Cl)cc3O2)n1 (centres undefined),> 79 µM (inactive)
18,Oc1c(Br)cc(Br)cc1C=Nc1cccc2ncccc12,27.3 µM
19,CCCCN(Cc1nc2ccccc2c(=O)[nH]1)C(=O)CN1C(=O)NC2(CCCCC2)C1=O,> 79 µM (inactive)
20,CC(C)[C@H](NC(=O)c1ccccc1Cl)C(=O)Nc1nc(-c2ccccn2)cs1,> 79 µM (inactive)
21,Cc1ccc(C=NNc2nc3c([nH]2)c(=O)n(C)c(=O)n3C)cc1,11.8 µM
22,COc1cc(/C=C(\C#N)C(=O)Nc2ccccc2)ccc1OCCN1CCOCC1,28.4 µM
23,COc1ccc(NC(=O)c2oc3ccc(S(=O)(=O)N4CCOCC4)cc3c2C)cc1,> 79 µM (inactive)
24,CC(OC(=O)Cn1[nH]c(=O)c2ccccc2c1=O)C(=O)Nc1cccc(Cl)c1 (centres undefined),> 79 µM (inactive)

row,SMILES,IC50
1,Cc1ccc2nc(-c3ccccc3)cc(C(=O)NNC(=O)c3csc(N4CCOCC4)n3)c2c1,> 79 µM (inactive)
2,COc1ccc(C(=O)Nc2cccc(/C(C)=N/NC(=O)c3ccc([N+](=O)[O-])c(C)c3)c2)cc1OC,> 79 µM (inactive)
3,O=C(CSc1nc2ccccc2c(=O)[nH]1)c1ccc(O)cc1O,33.1 µM (inactive)
4,O=C(CSc1ccc(-c2ccccn2)nn1)N1CCCc2ccccc21,> 79 µM (inactive)
5,COC(=O)c1cc2c(-c3ccccc3)cc3ccccn3c-2c1C(=O)OC,13 µM
6,COc1ccc(C(=O)COC(=O)Cc2n[nH]c(=O)c3ccccc23)c(OC)c1,> 79 µM (inactive)
7,Cc1cc(C)c(C)c(S(=O)(=O)N2CCN(C(=O)c3cc(=O)[nH]c4ccccc34)CC2)c1C,> 79 µM (inactive)
8,COc1cc(-c2cnc3c(NC=O)cc(-c4cccnc4)cn23)cc(OC)c1OC,30 µM
9,Oc1c(Br)cc(Br)cc1C=NCc1ccccc1,> 79 µM (inactive)
10,CCOC(=O)c1cc2c(=O)n3ccccc3nc2n(Cc2ccco2)c1=NC(=O)c1cccnc1,22.3 µM
11,COc1cc(C(=O)NCC(=O)N/N=C/c2ccc(-c3cccc([N+](=O)[O-])c3)o2)cc(OC)c1OC,12.5 µM
12,COCCCn1c(C)nc2c(c1=O)c1nc3ccccc3nc1n2CCc1ccccc1,> 79 µM (inactive)
13,Fc1ccc(-c2ccc(-c3nn4c(-c5ccco5)nnc4s3)o2)cc1,> 79 µM (inactive)
14,CCCN1C(=O)/C(=C/c2nc3ccccc3c(=O)[nH]2)c2ccccc21,11.2 µM
15,CC(=O)Nc1ccc(-c2csc(NC(=O)Nc3ccccc3)n2)cc1,36.3 µM (inactive)
16,CC(C)(C)c1ccc(OCC(=O)Nc2ccc3c4c(cccc24)C(=O)NC3=O)cc1,> 79 µM (inactive)
17,CCOc1ccc2ccccc2c1C(=O)N[C@@H]1C(=O)N2[C@@H]1SC(C)(C)[C@@H]2C(=O)O,47.1 µM (inactive)
18,CCOc1ccccc1NC(=O)c1oc2ccccc2c1NC(=O)C1CCCO1 (centres undefined),10.6 µM
19,Cn1c(=O)c2[nH]c(NN=Cc3cccc(Br)c3)nc2n(C)c1=O,> 79 µM (inactive)
20,O=C1C2C3C=CC(CC3)C2C(=O)N1c1cccc(Br)c1 (centres undefined),> 79 µM (inactive)
21,O=C(CCc1nc2ccccc2c(=O)[nH]1)NCCN1C(=O)S/C(=C\c2ccc(OC(F)F)cc2)C1=O,> 79 µM (inactive)
22,Cc1cc(C)n(-c2ccc3cccc(NS(C)(=O)=O)c3n2)n1,> 79 µM (inactive)
23,COc1ccc(S(=O)(=O)N2CCOCC2)cc1NC(=O)c1cccc2c(=O)c(C)c(-c3ccccc3)oc12,18 µM
24,Cc1ccc(NC(=O)c2cc(-c3cccs3)nc3ccccc23)nc1,9.88 µM

row,SMILES,IC50
1,Cc1cc(OCC(=O)N2CCOCC2)cc2oc(=O)c3ccccc3c12,14.7 µM
2,CCC(C)N1C(=O)S/C(=C/c2ccc3c(c2)n(C)c(=O)n3C)C1=O (centres undefined),> 79 µM (inactive)
3,O=c1c(O)c(-c2ccccc2)oc2cc(O)ccc12,> 79 µM (inactive)
4,CCCn1c(SC(C(=O)Nc2cccc(OC)c2)c2ccccc2)nc2ccccc2c1=O (centres undefined),> 79 µM (inactive)
5,CCN(CC)CCn1c(NC(=O)c2ccc(Cl)cc2)nc2ccccc21,> 79 µM (inactive)
6,NS(=O)(=O)c1ccc(CCNC(=O)c2ccc(C#CC3(O)CCCCC3)cc2)cc1,> 79 µM (inactive)
7,COC(=O)N1C(=O)[C@](c2ccccc2)(C2CCCCC2)N1C(=O)OC,25.4 µM
8,COC(=O)c1cc(OC)c(OC)cc1NC(=O)c1ccc(C)o1,25.9 µM
9,COc1cc(-c2cc(C(=O)Nc3ccccc3N3CCOCC3)c3ccccc3n2)cc(OC)c1OC,> 79 µM (inactive)
10,O=c1oc2ccc3ccccc3c2cc1-c1nnc(-c2ccccc2)o1,17.3 µM
11,c1ccc2c(c1)nc(Nc1ccc3c(c1)OCO3)c1nnnn12,16.9 µM
12,COc1cc(/C=C/c2nnc3c4ccccc4ncn23)cc(OC)c1OC,> 79 µM (inactive)
13,COC(=O)c1ccccc1NC(=O)/C=C/c1cc(OC)c(OC)c(OC)c1,22.9 µM
14,CCOC(=O)c1cccc(NC(=O)CSc2nc3ccccc3c(=O)n2CCOC)c1,34.1 µM (inactive)
15,COc1cccc(CN2CCN(C(=O)c3cc(-c4cccnc4)nc4ccc(C)cc34)CC2)c1,22.4 µM
16,Cc1c(C#N)c(N)nc2c3c(sc12)NC(=O)CC3c1ccccc1 (centres undefined),> 79 µM (inactive)
17,CCC(=O)OCCNc1cc(SCCC(=O)OC)c2nonc2c1[N+](=O)[O-],> 79 µM (inactive)
18,COc1ccc(C2/C=C\CN(S(=O)(=O)c3cccc4cccnc34)CC(=O)N2Cc2ccc(F)cc2)cc1 (centres undefined),> 79 µM (inactive)
19,Cc1nc(N2CCN(S(=O)(=O)c3cccc4nonc34)CC2)c2c3c(sc2n1)CCCC3,> 79 µM (inactive)
20,O=c1[nH]nc(Cc2ccccn2)c2ccccc12,> 79 µM (inactive)
21,O=C(CCc1nc2ccccc2c(=O)[nH]1)Nc1ccc(Cl)c(Cl)c1,20.6 µM
22,CN(C(=O)Cn1nc(C(=O)O)c2ccccc2c1=O)C1(C#N)CCCCC1,> 79 µM (inactive)
